Source: US20250188092A1, “RIFAMYCIN ANALOGS” (THE REGENTS OF THE UNIVERSITY OF MICHIGAN, priority 2021, published 2025)
≈ marks a conversion by molar mass, not a printed value.

Experiments:
[1] = system: non-replicating cultures of M. tuberculosis H37Rv transformed with lux ABCDE; assay: microbe, parasite or virus in culture; type: cell-based, Mycobacterium tuberculosis; conditions: for MIC90: Mycobacterium tuberculosis, H37RV, ≥90% reduction in luminescence, read-out: MIC90 LORA; for MIC90 LORA/MABA: ratio of LORA MIC90 to MABA MIC90
[2] = system: M. tuberculosis transformed with luxABCDE; assay: microbe, parasite or virus in culture; type: cell-based, Mycobacterium tuberculosis; conditions: for MBC: Mycobacterium tuberculosis, 168 h, ≥99% reduction in luminescence, read-out: MBC99 Day 7 (Lux Assay) MBC

Row | SMILES | MIC90 LORA Rel to RMP [1] | MIC90 [1] | MIC90 LORA/MABA [1] | MBC99 Day 7 (Lux Assay) MBC Rel to RMP [2] | MBC [2]
1 | CO[C@H]1/C=C/O[C@@]2(C)Oc3c(C)c(O)c4c(=O)c(c5oc6cc(N7CCN(C(=O)OC(C)(C)C)CC7)cc(C)c6nc-5c4c3C2=O)NC(=O)/C(C)=C\C=C\[C@H](C)[C@H](O)[C@@H](C)[C@@H](O)[C@@H](C)[C@H](OC(C)=O)[C@@H]1C [Compound 26i, tert-Butyl 4-[(7S,9E,11S,12R,13S,14R,15R,16R,17S,18S,19E,21Z)-13-(acetyloxy)-2,15,17-trihydroxy-11-methoxy-3,7,12,14,16,18,22,32-octamethyl-6,23,37-trioxo-8,27,38-trioxa-24,34-diazahexacyclo[23.11.1.1^4,7.0^5,36.0^26,35.0^28,33]octatriaconta-1(36)2,4,9,19,21,25,28,30,32,34-undecaen-30-yl]piperazine-1-carboxylate] | 0.05 | 0.0093 µM (≈ 0.00914 µg/mL) | 2.0 | 0.10 | 0.047 µM (≈ 0.0462 µg/mL)
2 | CO[C@H]1/C=C/O[C@@]2(C)Oc3c(C)c(O)c4c(=O)c(c5oc6cc(N7CCCC(C(=O)Nc8ccc(Cl)cc8)C7)cc(C)c6nc-5c4c3C2=O)NC(=O)/C(C)=C\C=C\[C@H](C)[C@H](O)[C@@H](C)[C@@H](O)[C@@H](C)[C@H](OC(C)=O)[C@@H]1C (stereo partly drawn) [Compound 28, (7S,9E,11S,12R,13S,14R,15R,16R,17S,1S,19E,21Z)-30-{3-[(4-Chlorophenyl)carbamoyl]piperidin-1-yl}-2,15,17-trihydroxy-11-methoxy-3,7,12,14,16,18,22,32-octamethyl-6,23,37-trioxo-8,27,38-trioxa-24,34-diazahexacyclo[23.11.1.1^4,7.0^5,36.0^26,35.0^28,33]octatriaconta-1(36)2,4,9,19,21,25,28,30,32,34-undecaen-13-yl acetate] | 0.04 | 0.0092 µM | 2.1 | 0.05 | 0.025 µM
3 | CO[C@H]1/C=C/O[C@@]2(C)Oc3c(C)c(O)c4c(=O)c(c5oc6cc(N7CCN(C(=O)c8cccc(-c9ccccn9)c8)CC7)cc(C)c6nc-5c4c3C2=O)NC(=O)/C(C)=C\C=C\[C@H](C)[C@H](O)[C@@H](C)[C@@H](O)[C@@H](C)[C@H](OC(C)=O)[C@@H]1C [Compound 29b, (7S,9E,11S,12R,13S,14R,15R,16R,17S,18S,19E,21Z)-2,15,17-Trihydroxy-11-methoxy-3,7,12,14,16,18,22,32-octamethyl-6,23,37-trioxo-30-(4-[3-(pyridin-2-yl)benzoyl]piperazin-1-yl)-8,27,38-trioxa-24,34-diazahexacyclo-[23.11.1.1^4,7.0^5,36.0^26,35.0^28,33]octatriaconta-1(36)2,4,9,19,21,25,28,30,32,34-undecaen-13-yl acetate] | 0.03 | 0.006 µM | 0.7 | 0.11 | 0.05 µM
4 | CO[C@H]1/C=C/O[C@@]2(C)Oc3c(C)c(O)c4c(=O)c(c5oc6cc(N7CCN(C(=O)c8ccc9occc9c8)CC7)cc(C)c6nc-5c4c3C2=O)NC(=O)/C(C)=C\C=C\[C@H](C)[C@H](O)[C@@H](C)[C@@H](O)[C@@H](C)[C@H](OC(C)=O)[C@@H]1C [Compound 29c, (7S,9E,11S,12R,13S,14R,15R,16R,17S,18S,19E,21Z)-30-[4-(1-Benzofuran-5-carbonyl)piperazin-1-yl]-2,15,17-trihydroxy-11-methoxy-3,7,12,14,16,18,22,32-octamethyl-6,23,37-trioxo-8,27,38-trioxa-24,34-diazahexacyclo[23.11.1.1^4,7.0^5,36.0^26,35.0^28,33]octatriaconta-(36)2,4,9,19,21,25,28,30,32,34-undecaen-13-yl acetate] | 0.05 | 0.0096 µM | 2.0 | 0.10 | 0.048 µM
5 | CO[C@H]1/C=C/O[C@@]2(C)Oc3c(C)c(O)c4c(=O)c(c5oc6cc(N7CCN(CCCCCCO[C@@H]8COc9nc([N+](=O)[O-])cn9C8)CC7)cc(C)c6nc-5c4c3C2=O)NC(=O)/C(C)=C\C=C\[C@H](C)[C@H](O)[C@@H](C)[C@@H](O)[C@@H](C)[C@H](OC(C)=O)[C@@H]1C [Compound 29e, (7S,9E,11S,12R,13S,14R,15R,16R,17S,18S,19E,21Z)-2,15,17-Trihydroxy-11-methoxy-3,7,12,14,16,18,22,32-octamethyl-30-[4-(6-{[(6S)-2-nitro-5H,6H,7H-imidazo[2,1-b][1,3]oxazin-6-yl]oxy}hexyl)piperazin-1-yl]-6,23,37-trioxo-8,27,38-trioxa-24,34-diazahexacyclo[23.11.1.1^4,7.0^5,36.0^26,35.0^28,33]octatriaconta-1(36)2,4,9,19,21,25,28,30,32,34-undecaen-13-yl acetate] | 0.03 | 0.008 µM | 4.0 | 0.11 | 0.05 µM
6 | CO[C@H]1/C=C/O[C@@]2(C)Oc3c(C)c(O)c4c(=O)c(c5oc6cc(N7CCC(C(=O)O)CC7)cc(C)c6nc-5c4c3C2=O)NC(=O)/C(C)=C\C=C\[C@H](C)[C@H](O)[C@@H](C)[C@@H](O)[C@@H](C)[C@H](OC(C)=O)[C@@H]1C [Compound 29f, 1-[(7S,9E,11S,12R,13S,14R,15R,16R,17S,18S,19E,21Z)-13-(acetyloxy)-2,15,17-trihydroxy-11-methoxy-3,7,12,14,16,18,22,32-octamethyl-6,23,37-trioxo-8,27,38-trioxa-24,34-diazahexacyclo-[23.11.1.1^4,7.0^5,36.0^26,35.0^28,33]octatriaconta-1,3,5(36)9,19,21,25,28,30,32,34-undecaen-30-yl]piperidine-4-carboxylic acid] | 40 | 1.07 µM (≈ 0.987 µg/mL) | 4.5 |  | > 0.1 µM
7 | CO[C@H]1/C=C/O[C@@]2(C)Oc3c(C)c(O)c4c(=O)c(c5oc6cc(N7CCC(CC(=O)O)CC7)cc(C)c6nc-5c4c3C2=O)NC(=O)/C(C)=C\C=C\[C@H](C)[C@H](O)[C@@H](C)[C@@H](O)[C@@H](C)[C@H](OC(C)=O)[C@@H]1C [Compound 29g, 2-{4-[(7S,9E,11S,12R,13S,14R,15R,16R,17S,18S,19E,21Z)-13-(acetyloxy)-2,15,17-trihydroxy-11-methoxy-3,7,12,14,16,18,22,32-octamethyl-6,23,37-trioxo-8,27,38-trioxa-24,34-diazahexacyclo[23.11.1.1^4,7.0^5,36.0^26,35.0^28,33]octatriaconta-1,3,5(36)9,19,21,25,28,30,32,34-undecaen-30-yl]piperidin-4-yl}acetic acid] | 10 | 0.28 µM (≈ 0.263 µg/mL) | 5.4 |  | > 0.1 µM
8 | CO[C@H]1/C=C/O[C@@]2(C)Oc3c(C)c(O)c4c(=O)c(c5oc6cc(N7CCN(CC(=O)O)CC7)cc(C)c6nc-5c4c3C2=O)NC(=O)/C(C)=C\C=C\[C@H](C)[C@H](O)[C@@H](C)[C@@H](O)[C@@H](C)[C@H](OC(C)=O)[C@@H]1C [Compound 29h, 2-{4-[(7S,9E,11S,12R,13S,14R,15R,16R,17S,18S,19E,21Z)-13-(acetyloxy)-2,15,17-trihydroxy-11-methoxy-3,7,12,14,16,18,22,32-octamethyl-6,23,37-trioxo-8,27,38-trioxa-24,34-diazahexacyclo[23.11.1.1^4,7.0^5,36.0^26,35.0^28,33]octatriaconta-1,3,5(36)9,19,21,25,28,30,32,34-undecaen-30-yl]piperazin-1-yl}acetic acid] | 5.0 | 0.133 µM (≈ 0.125 µg/mL) | 7.2 |  | > 0.1 µM
9 | CO[C@H]1/C=C/O[C@@]2(C)Oc3c(C)c(O)c4c(=O)c(c5oc6cc(C)cc(N7CCN(CCn8ccnc8)CC7)c6nc-5c4c3C2=O)NC(=O)/C(C)=C\C=C\[C@H](C)[C@H](O)[C@@H](C)[C@@H](O)[C@@H](C)[C@H](OC(C)=O)[C@@H]1C [Compound 30e, (7S,9E,11S,12R,13S,14R,15R,16R,17S,18S,19E,21Z)-2,15,17-Trihydroxy-32-{4-[3-(1H-imidazol-1-yl)ethyl]piperazin-1-yl}-11-methoxy-3,7,12,14,16,18,22,30-octamethyl-6,23,37-trioxo-8,27,38-trioxa-24,34-diazahexacyclo[23.11.1.1^4,7.0^5,36.0^26,35.0^28,33]octatriaconta-1(36)2,4,9,19,21,25,28,30,32,34-undecaen-13-yl acetate] | 0.87 | 0.18 µM | 2.1 | 1.06 | 0.49 µM
10 | CO[C@H]1/C=C/O[C@@]2(C)Oc3c(C)c(O)c4c(=O)c(c5oc6cc(C)cc(N7CCN(C(=O)c8cccc(-n9ccnc9)c8)CC7)c6nc-5c4c3C2=O)NC(=O)/C(C)=C\C=C\[C@H](C)[C@H](O)[C@@H](C)[C@@H](O)[C@@H](C)[C@H](OC(C)=O)[C@@H]1C [Compound 30f, (7S,9E,11S,12R,13S,14R,15R,16R,17S,18S,19E,21Z)-2,15,17-Trihydroxy-32-{4-[3-(1H-imidazol-1-yl)benzoyl]piperazin-1-yl}-11-methoxy-3,7,12,14,16,18,22,30-octamethyl-6,23,37-trioxo-8,27,38-trioxa-24,34-diazahexacyclo[23.11.1.1^4,7.0^5,36.0^26,35.0^28,33]octatriaconta-1(36)2,4,9,19,21,25,28,30,32,34-undecaen-13-yl acetate] | 0.57 | 0.117 µM | 2.7 | 0.24 | 0.11 µM
11 | CO[C@H]1/C=C/O[C@@]2(C)Oc3c(C)c(O)c4c(c3C2=O)C2=NC3(CCN(CC(C)C)CC3)NC2=C(NC(=O)/C(C)=C\C=C\[C@H](C)[C@H](O)[C@@H](C)[C@@H](O)[C@@H](C)[C@H](OC(C)=O)[C@@H]1C)C4=O [RFB, rifabutin, reference compound] | 0.01 | 0.0023 µM (≈ 0.00195 µg/mL) | 0.94 | 0.02 | 0.01 µM (≈ 0.00847 µg/mL)
